Results from PubChem BioAssay (NCI).
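1) Cells in 96-well plates. 2) Compound, 48 h, 5 concentrations. 3) Linear interpolation between surrounding doses. 4) Unreached endpoint = highest concentration. Here, GI50 denotes the concentration required for 50% inhibition of growth. TGI is the concentration that stops growth completely.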

Key:
Assay in all cases: DTP human tumour cell line panel, 48 h
ACHN renal = test system: ACHN renal
MCF7 breast = test system: MCF7 breast
PC-3 prostate = test system: PC-3 prostate
OVCAR-5 ovarian = test system: OVCAR-5 ovarian
MDA-MB-435 = test system: MDA-MB-435
SR leukemia = test system: SR leukemia
NCI-H460 lung = test system: NCI-H460 lung
SK-OV-3 ovarian = test system: SK-OV-3 ovarian
CAKI-1 renal = test system: CAKI-1 renal
NCI-H522 lung = test system: NCI-H522 lung

Row | SMILES | GI50 (ACHN renal) | TGI (ACHN renal) | GI50 (MCF7 breast) | GI50 (PC-3 prostate) | TGI (PC-3 prostate) | GI50 (OVCAR-5 ovarian) | TGI (OVCAR-5 ovarian) | TGI (MDA-MB-435) | GI50 (SR leukemia) | TGI (SR leukemia) | GI50 (NCI-H460 lung) | TGI (NCI-H460 lung) | GI50 (SK-OV-3 ovarian) | TGI (SK-OV-3 ovarian) | GI50 (CAKI-1 renal) | TGI (CAKI-1 renal) | GI50 (NCI-H522 lung) | TGI (NCI-H522 lung) | TGI (MCF7 breast) | GI50 (MDA-MB-435)
1 | COc1cc2c3c(n(CCCN)c(=O)c2cc1OC)-c1cc2c(cc1/C3=C\CCN)OCO2 | 5.81 µM | 45 µM | 692 nM | 4430 nM | 17.8 µM | 4290 nM | > 26.1 µM | > 36 µM | 166 nM | > 100 µM | 1060 nM | 7.53 µM | 6 µM | 44.2 µM | 23.6 µM | > 100 µM | 200 nM | 3.08 µM | – | –
2 | COc1ccccc1CCN=C1NC(=O)/C(=C/c2ccc3ncccc3c2)S1 | 5.98 µM | 24.5 µM | 1630 nM | 4540 nM | > 25 µM | 7060 nM | > 23.1 µM | > 25 µM | 743 nM | 3.02 µM | 6050 nM | > 25 µM | 5.67 µM | 14.4 µM | 3.52 µM | > 15.6 µM | 2360 nM | 7.54 µM | > 23.9 µM | 1430 nM
3 | O=C1C(=O)c2ccccc2C(O)=C1CC=C(Br)Br | 4.71 µM | 92.3 µM | 4290 nM | 3050 nM | 91.5 µM | 21800 nM | > 100 µM | 98 µM | 2570 nM | 55.9 µM | 524 nM | 13.3 µM | 10.5 µM | 59.8 µM | 3.38 µM | > 100 µM | 5280 nM | 29.9 µM | > 100 µM | 5260 nM
4 | CC(C)(O)CS(=O)(=O)Nc1ccc2c(c1)CCN(C(=O)COc1cccnc1)C2 | > 100 µM | > 100 µM | 5100 nM | 1060 nM | > 100 µM | – | > 100 µM | > 100 µM | > 45700 nM | > 100 µM | 11500 nM | > 100 µM | > 100 µM | > 100 µM | > 92.4 µM | > 100 µM | – | > 100 µM | > 100 µM | 518 nM
5 | C/C(=N\Nc1cc(C)c2cc(C)ccc2n1)c1ccccn1 | < 0.0424 µM | 1.14 µM | 86.6 nM | – | 2.32 µM | – | 2.08 µM | 1.79 µM | < 31 nM | 0.491 µM | 187 nM | 1.22 µM | 0.0743 µM | 7.21 µM | – | 0.261 µM | < 47.2 nM | 0.124 µM | 1.16 µM | 145 nM
6 | CC1(C)N=C(N)N=C(N)N1c1ccc(OCCCCOc2ccc(S(=O)(=O)F)cc2)c(Cl)c1 | 1.68 µM | > 100 µM | 130 nM | 64 nM | 11 µM | 302 nM | 22.7 µM | 16.3 µM | 44.5 nM | 26.9 µM | 38.2 nM | 11.8 µM | 5.88 µM | 24.9 µM | 3.7 µM | > 47.2 µM | 160 nM | 16.2 µM | 13 µM | 60.4 nM
7 | Cn1c(/C=C(\C#N)c2ccccc2)nc2c(N3CCOCC3)nc(Cl)nc21 | 0.458 µM | 1.59 µM | 480 nM | 849 nM | 2.99 µM | 1420 nM | 2.99 µM | 2.78 µM | 393 nM | 2.1 µM | 1770 nM | 3.72 µM | 4.54 µM | 16.2 µM | 0.824 µM | 2.21 µM | 740 nM | 2.47 µM | 2.15 µM | 1300 nM
8 | Cc1cc2nc3c4cc(N)ccc4n(CCN(C)C)c3nc2cc1C | 0.351 µM | 9.7 µM | 494 nM | 935 nM | 8.67 µM | 914 nM | 9.66 µM | 3.25 µM | 285 nM | 7.29 µM | 402 nM | 2.95 µM | 1.92 µM | 16.4 µM | 0.462 µM | 6.28 µM | 721 nM | 5.63 µM | 7.96 µM | 979 nM
